# Reference: PubChem BioAssay (NCI)
#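 How tested: cells in 96-well plates exposed to compound for 48 hours at five concentrations. TGI denotes the concentration required for complete inhibition of growth.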
# Tests used:
# Assay in all cases: NCI-60 cell line screen, 48 h
# 786-0 renal = system: 786-0 renal
# BT-549 breast = system: BT-549 breast
# CAKI-1 renal = system: CAKI-1 renal
# COLO 205 colon = system: COLO 205 colon
# EKVX NSCLC = system: EKVX NSCLC
# HCT-116 colon = system: HCT-116 colon
# HOP-92 NSCLC = system: HOP-92 NSCLC
# HT29 colon = system: HT29 colon
# K-562 leukemia = system: K-562 leukemia
# KM12 colon = system: KM12 colon
# LOX IMVI melanoma = system: LOX IMVI melanoma
# MDA-MB-231 breast = system: MDA-MB-231 breast
# OVCAR-8 ovarian = system: OVCAR-8 ovarian
# SF-268 CNS = system: SF-268 CNS
# SF-295 CNS = system: SF-295 CNS
# SK-MEL-2 melanoma = system: SK-MEL-2 melanoma
# SNB-19 CNS = system: SNB-19 CNS
# SW-620 colon = system: SW-620 colon
# TK-10 renal = system: TK-10 renal
# SK-MEL-28 melanoma = system: SK-MEL-28 melanoma
SMILES,TGI (786-0 renal),TGI (BT-549 breast),TGI (CAKI-1 renal),TGI (COLO 205 colon),TGI (EKVX NSCLC),TGI (HCT-116 colon),TGI (HOP-92 NSCLC),TGI (HT29 colon),TGI (K-562 leukemia),TGI (KM12 colon),TGI (LOX IMVI melanoma),TGI (MDA-MB-231 breast),TGI (OVCAR-8 ovarian),TGI (SF-268 CNS),TGI (SF-295 CNS),TGI (SK-MEL-2 melanoma),TGI (SNB-19 CNS),TGI (SW-620 colon),TGI (TK-10 renal),TGI (SK-MEL-28 melanoma)
COc1cc([C@@H]2c3cc4c(cc3[C@@H](OC3OC5COC(C)OC5C(OC(=O)CN5CCN(C)CC5)C3OC(=O)CN3CCN(C)CC3)C3COC(=O)[C@@H]32)OCO4)cc(OC)c1OC(=O)CN1CCN(C)CC1 (some centres undefined),52.8 µM,> 100 µM,> 100 µM,> 100 µM,> 100 µM,> 100 µM,> 100 µM,> 100 µM,> 100 µM,> 100 µM,> 100 µM,> 100 µM,> 100 µM,> 100 µM,> 100 µM,> 100 µM,> 100 µM,> 100 µM,> 100 µM,–
CC(C)[Si](OC1=C(c2ccccc2)C(NC(=O)/C=C/c2ccc([N+](=O)[O-])cc2)CCC1)(C(C)C)C(C)C (centres undefined),> 100 µM,> 100 µM,–,> 100 µM,> 100 µM,> 100 µM,> 100 µM,> 100 µM,> 100 µM,> 100 µM,> 100 µM,> 100 µM,> 100 µM,> 100 µM,> 100 µM,> 100 µM,> 100 µM,> 100 µM,> 100 µM,–
NC(=O)CCC(CCC(N)=O)(CCC(N)=O)[N+](=O)[O-],> 100 µM,> 100 µM,> 100 µM,> 100 µM,> 100 µM,> 100 µM,> 100 µM,> 100 µM,–,> 100 µM,–,> 100 µM,> 100 µM,> 100 µM,> 100 µM,> 100 µM,> 100 µM,> 100 µM,> 100 µM,–
N#Cc1cc(N(CCCl)CCCl)c([N+](=O)[O-])cc1[N+](=O)[O-],> 100 µM,> 100 µM,69.8 µM,> 100 µM,> 100 µM,> 100 µM,> 100 µM,> 100 µM,> 100 µM,> 100 µM,> 100 µM,> 100 µM,> 100 µM,> 100 µM,> 100 µM,> 100 µM,> 100 µM,> 100 µM,> 100 µM,> 100 µM
CC1=CC(=O)[C@@H](O)[C@]2(C)[C@H]3[C@@]4(O)OC[C@@]35[C@@H](C[C@@H]12)OC(=O)C(OC(=O)CC1=CCCC1)[C@H]5[C@@H](C)[C@H]4O (some centres undefined),0.311 µM,0.198 µM,1.63 µM,0.724 µM,1.45 µM,1.42 µM,1.15 µM,0.203 µM,> 100 µM,0.166 µM,0.0653 µM,0.372 µM,0.139 µM,0.132 µM,0.448 µM,0.237 µM,–,> 29.5 µM,0.948 µM,1.25 µM
Cn1c(=O)n2c(-c3ccccc3)c(-c3ccccc3)n2c1=O,> 100 µM,> 100 µM,> 100 µM,> 100 µM,> 100 µM,> 100 µM,> 100 µM,> 100 µM,> 100 µM,> 100 µM,> 100 µM,> 100 µM,> 100 µM,–,> 100 µM,> 100 µM,> 100 µM,> 100 µM,> 100 µM,> 100 µM
CCC1c2[nH]c3ccccc3c2C[C@H]2C(=O)N3CCC[C@H]3C(=O)N12 (some centres undefined),> 100 µM,> 100 µM,> 100 µM,> 100 µM,> 100 µM,> 100 µM,> 100 µM,> 100 µM,> 100 µM,> 100 µM,> 100 µM,> 100 µM,> 100 µM,> 100 µM,> 100 µM,> 100 µM,> 100 µM,> 100 µM,> 100 µM,> 100 µM
CC(=O)O[C@H]1CC[C@@]2(C)C(=C[C@H](c3ccc(O)cc3)[C@H]3[C@@H]4CC[C@H](OC(C)=O)[C@@]4(C)CC[C@@H]32)C1,38.3 µM,29.4 µM,53.4 µM,35.2 µM,37.4 µM,29.7 µM,81.5 µM,26.5 µM,59.4 µM,31 µM,27.1 µM,35.8 µM,33.8 µM,39.3 µM,77.9 µM,48.4 µM,47.7 µM,46.2 µM,> 100 µM,–
CCOC(=O)c1c[nH]cc1-c1cn(S(=O)(=O)c2ccccc2)cc1C,> 100 µM,74.8 µM,48.4 µM,42.4 µM,71.3 µM,58.9 µM,> 100 µM,52.8 µM,86.4 µM,49 µM,71.9 µM,> 100 µM,> 100 µM,78.6 µM,> 100 µM,> 100 µM,> 100 µM,> 10 µM,> 100 µM,38.4 µM
OCCCc1cc(O)c2c(c1)C(CO)C(c1ccc(O)c(O)c1)O2 (centres undefined),> 100 µM,> 100 µM,> 100 µM,> 100 µM,> 100 µM,> 100 µM,> 100 µM,> 100 µM,> 100 µM,> 100 µM,> 100 µM,> 100 µM,> 100 µM,> 100 µM,> 100 µM,> 100 µM,> 100 µM,> 100 µM,> 100 µM,> 100 µM
COC(=O)Cc1c(/C=C/C(C)(C)n2cnc(CCN3C(=O)CCC3=O)c2)[nH]c2ccccc12,> 100 µM,> 100 µM,> 100 µM,> 100 µM,> 100 µM,> 100 µM,> 100 µM,> 100 µM,> 100 µM,> 100 µM,> 100 µM,> 100 µM,> 100 µM,> 100 µM,> 100 µM,> 100 µM,> 100 µM,> 100 µM,> 100 µM,> 100 µM
COc1ccc2oc(=O)c(-c3nc4ccccc4o3)cc2c1,> 100 µM,> 100 µM,> 100 µM,> 100 µM,> 100 µM,> 100 µM,> 100 µM,> 100 µM,> 100 µM,> 100 µM,> 100 µM,> 100 µM,> 100 µM,> 100 µM,> 100 µM,> 100 µM,> 100 µM,> 100 µM,> 100 µM,> 100 µM
CC1OC(OC2C(CO)OC(O[C@H]3CC[C@@]4(C)C(=CC[C@H]5[C@@H]6C[C@@H]7O[C@](O)(CC[C@H](CO)COC8OC(CO)C(O)C(O)C8O)[C@@H](C)[C@@H]7[C@@]6(C)CC[C@@H]54)C3)C(OC3OC(C)C(O)C(O)C3O)C2O)C(O)C(O)C1O (some centres undefined),> 100 µM,> 100 µM,> 100 µM,> 100 µM,> 100 µM,> 100 µM,> 100 µM,> 100 µM,> 100 µM,> 100 µM,> 100 µM,> 100 µM,> 100 µM,> 100 µM,> 100 µM,> 100 µM,> 100 µM,> 100 µM,> 100 µM,> 100 µM
C/C=N\n1c(C)c(C#N)c(C#N)c1N,> 100 µM,> 100 µM,> 100 µM,> 100 µM,> 100 µM,> 100 µM,> 100 µM,> 100 µM,> 100 µM,> 100 µM,> 100 µM,> 100 µM,> 100 µM,> 100 µM,> 100 µM,> 100 µM,> 100 µM,> 100 µM,> 100 µM,–
Cc1coc2c1C(=O)C(=O)c1c-2ccc2c1CCCC2(C)C,8.62 µM,9.28 µM,5.15 µM,22.5 µM,> 100 µM,4.27 µM,> 100 µM,42.4 µM,11.5 µM,> 92.3 µM,1.9 µM,> 100 µM,> 100 µM,> 100 µM,8.49 µM,6.94 µM,22.8 µM,12.5 µM,> 85.8 µM,7.52 µM
O=Nc1sc(=N\O)/c(=N/O)sc1NO,> 100 µM,> 100 µM,> 100 µM,> 100 µM,> 100 µM,> 100 µM,> 100 µM,> 100 µM,> 100 µM,> 100 µM,> 100 µM,> 100 µM,> 100 µM,–,> 100 µM,> 100 µM,> 100 µM,> 100 µM,–,> 100 µM
CCOC(=O)N/N=C(\Cc1ccc([N+](=O)[O-])cc1)OCC,> 100 µM,> 100 µM,–,> 100 µM,> 100 µM,> 100 µM,> 100 µM,> 100 µM,> 100 µM,> 100 µM,> 100 µM,> 100 µM,> 100 µM,> 100 µM,> 100 µM,> 100 µM,> 100 µM,> 100 µM,> 100 µM,–
Cc1cc(O)c(C=NC(=S)c2ccccc2)c(=O)o1,> 100 µM,> 100 µM,> 100 µM,> 100 µM,> 100 µM,> 100 µM,> 100 µM,> 100 µM,–,> 100 µM,> 100 µM,> 100 µM,> 100 µM,–,> 100 µM,> 100 µM,> 100 µM,> 100 µM,> 100 µM,> 100 µM
CC(=O)C1=C(C)N2C(=NC3=C(CCc4ccccc43)C2c2cccc(Br)c2)S1 (centres undefined),> 100 µM,> 100 µM,–,> 100 µM,> 100 µM,> 100 µM,> 100 µM,> 100 µM,–,> 100 µM,> 100 µM,> 100 µM,> 100 µM,> 100 µM,> 100 µM,> 100 µM,> 100 µM,> 100 µM,–,> 100 µM
COc1ccc2nc3cc([N+](=O)[O-])ccc3c(Nc3ccc(S(=O)(=O)N=C(N)N)cc3)c2c1,> 100 µM,> 100 µM,> 100 µM,70.6 µM,> 100 µM,80.5 µM,77.8 µM,> 100 µM,63.1 µM,57.5 µM,> 100 µM,> 100 µM,–,> 100 µM,> 100 µM,44.4 µM,> 100 µM,> 100 µM,> 100 µM,> 100 µM
CCC12CC(c3ccccc3)C(C(=O)N1)C(=O)N2 (centres undefined),> 100 µM,> 100 µM,> 100 µM,> 100 µM,> 100 µM,> 100 µM,> 100 µM,> 100 µM,> 100 µM,> 100 µM,–,> 100 µM,> 100 µM,> 100 µM,> 100 µM,> 100 µM,> 100 µM,> 100 µM,–,> 100 µM
CN(C)C1(N(C)C)Oc2c(c(=O)n(C)c(=O)n2C)C(c2ccccc2Br)C1(F)F (centres undefined),> 100 µM,> 100 µM,> 100 µM,> 100 µM,> 100 µM,> 100 µM,> 100 µM,–,> 100 µM,> 100 µM,> 100 µM,> 100 µM,–,> 100 µM,> 100 µM,> 100 µM,> 100 µM,> 100 µM,> 100 µM,> 100 µM
CSc1nc2c(c(=O)[nH]1)N=C(c1ccc(Cl)cc1)CC(c1ccccc1)N2 (centres undefined),30 µM,45.4 µM,34.2 µM,34 µM,40.9 µM,51.4 µM,38.7 µM,31.4 µM,44.9 µM,30 µM,44.2 µM,30.8 µM,31.4 µM,–,32.6 µM,31.7 µM,29.9 µM,39.1 µM,–,32.4 µM
